# From US9023805B2, “Increasing cancer patient survival time by administration of dithio-containing compounds” (BioNumerik Pharmaceuticals, Inc., priority 2010, dated 2015)
# Entries after “also recorded” stand apart in the source; their conditions may differ.
# What was measured:
# [1] = tested on: coupled thioredoxin (TX)/thioredoxin reductase (TXR) system; assay: NADPH oxidation, thioredoxin reductase + thioredoxin; format: biochemical, bovine; details: for NADPH Oxidation, Thioredoxin Reductase + Thioredoxin: Disulfide 0.5 mM, minimum of triplicate assays
# Method: (§1) The activity of TXR and TX was determined by following NADPH oxidation at 340 nm according to the previously reported method. See, Luthman, M., and Holmgren, A. Rat liver thioredoxin and thioredoxin reductase: purification and characterization. Biochemistry 21:6628-6633 (1982). A typical assay mixture contained TR buffer (50 mM potassium phosphate, pH 7.0, 1 mM EDTA), […] NADPH, 1.6 μg bovine TX, and one or more of the following: 4.8 μM TXR, 86 μM insulin, and one of the disulfides described herein. All disulfides were added to reactions as 10× solutions in TR buffer. The total volume of each reaction was 0.1 mL. Reactions were initiated by the addition of TX and were incubated at 25° C. for 40 min. The activity was calculated using a 4 min. linear portion of each reaction. Enzyme assays were carried out using either a Molecular Devices SpectraMaxPlus UV plate reader or a Varian Cary 100 UV-visible Spectrophotometer.
# Data was then collected and plotted in Microsoft Excel. Error calculations, and graphical representations were performed in Microsoft Excel and Kaleidograph (ver. 3.5). Nonlinear data was graphically rendered using Kaleidograph. ANOVA and other statistical analyses were performed using SAS (ver. 8.2). Unless otherwise noted, significance level was set at 0.05, and error bars represent actual experimental standard deviation.
# [2] = target: T1, glutathione reductase (GR) (Homo sapiens, UniProt P00390); assay: NADPH oxidation, GR; format: biochemical
# T1 sequence (P00390 44-522): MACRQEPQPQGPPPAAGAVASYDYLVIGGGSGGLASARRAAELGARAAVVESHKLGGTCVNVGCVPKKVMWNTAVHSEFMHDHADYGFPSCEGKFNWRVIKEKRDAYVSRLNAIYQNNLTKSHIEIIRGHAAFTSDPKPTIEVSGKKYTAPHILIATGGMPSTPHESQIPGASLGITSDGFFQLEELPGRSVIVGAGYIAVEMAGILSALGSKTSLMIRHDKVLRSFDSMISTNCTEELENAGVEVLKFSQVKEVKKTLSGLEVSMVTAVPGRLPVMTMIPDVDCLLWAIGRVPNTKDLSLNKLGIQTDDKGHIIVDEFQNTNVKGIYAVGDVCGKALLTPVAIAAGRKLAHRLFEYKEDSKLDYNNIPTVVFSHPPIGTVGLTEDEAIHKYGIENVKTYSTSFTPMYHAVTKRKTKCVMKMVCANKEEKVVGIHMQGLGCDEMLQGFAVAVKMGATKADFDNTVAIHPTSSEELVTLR
# Method: (§2) The Formula (I) compound was utilized at a concentration of 0.5 mM.
# [3] = target: T2, Glutathione-S-Transferase (GST) (Homo sapiens, UniProt P09488); assay: GST assay: conjugation of reduced glutathione to 1-chloro-2,4-dinitrobenzene (CDNB); format: biochemical; details: read-out: Percent Inhibition
# T2 construct: purchased
# T2 sequence (P09488 2-218 limits assumed): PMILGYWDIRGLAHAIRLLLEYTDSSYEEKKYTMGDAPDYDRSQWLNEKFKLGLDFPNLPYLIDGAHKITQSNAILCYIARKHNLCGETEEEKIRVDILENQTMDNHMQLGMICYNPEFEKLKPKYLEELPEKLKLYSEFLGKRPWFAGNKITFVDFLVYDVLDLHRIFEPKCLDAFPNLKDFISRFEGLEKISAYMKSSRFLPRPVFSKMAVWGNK
# Method: An in vitro assay for GST has been developed and reported. See, Meyer, D. J. and Ketterer, B., Purification of soluble human glutathione S-transferases. Methods Enzymol. 252:53-65 (1995). This assay monitors the conjugation of reduced glutathione to 1-chloro-2,4-dinitrobenzene (CDNB), as illustrated in Reaction Scheme II, below.
# Reduced thiol forms a conjugate with CDNB (extinction coefficient=9600 M^−1 cm^−1), which is detected at 340 nm. […] A typical 1 mL assay was set up by mixing 500 μl NaHPO4 buffer (200 mM, pH 6.5), 20 μL GSH (50 mM), 20 μL CDNB (50 mM), and 458 μL sterile water. Reactions were incubated at 20° C. in the cuvette holder of the spectrophotometer for approximately 5 min. prior to initiating the assay with the addition of enzyme (ml−1 isotype of GST; activity >100 U/mg). The enzyme stock purchased from the vendor was diluted 1:100 in 200 mM NaHPO4 buffer (pH 6.5), and 2 μL of the diluted enzyme was added to initiate the reaction. The final amount of enzyme added to the assay was typically 0.002 U. Assays were run at 20° C. in 1 mL quartz cuvettes (Hellma Scientific). Slopes were measured in the linear range of the assay (i.e., typically between 5 to 10 min.). […] Final reaction volumes were fixed at 1 mL by adjusting the amount of water added.
# a. […]
# Raw data was obtained on a Cary 100 spectrophotometer. […] No absorbance values were collected during the process of enzyme addition. […] It was during this time that reaction rates (i.e., slopes of change in absorbance with time) were measured using the Cary 100 software. […] Absorbance and time values during the end phase of the reaction were not used in slope calculations because the reaction was effectively over at this point as the reaction no longer followed the classical Michaelis-Menton model for enzyme kinetics. Completion of the reaction on the Cary software could be detected visually by overlaying a straight line beginning at the addition of enzyme and extending past the end phase of the assay curve. […]
# [4] = tested on: coupled thioredoxin (TX)/thioredoxin reductase (TXR) system; assay: TX/TXR catalyzed reduction of the insulin A-B chain disulfide; format: biochemical, bovine
# Method: as §1
# [5] = target: T3, coupled glutaredoxin (GRX)/glutathione (GSH)/glutathione reductase (GR) system (Homo sapiens, UniProt P35754); assay: NADPH oxidation, GR + GRX + GSH; format: biochemical; details: in the presence of reduced glutathione and glutathione reductase
# T3 sequence (P35754 2-106 limits assumed): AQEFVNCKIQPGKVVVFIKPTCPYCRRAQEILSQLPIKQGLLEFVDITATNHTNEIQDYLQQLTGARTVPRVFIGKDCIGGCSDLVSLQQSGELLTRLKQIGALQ
# Method: as §2
# [6] = tested on: patients with advanced non-small cell lung carcinoma (NSCLC), including the adenocarcinoma sub-type; assay: Japan Phase III Clinical Trial; format: in vivo, human
# Method: (§3) Darbepoetin alfa (200 μg; subcutaneous administration) was administered on day one of the chemotherapy cycle and pegfilgrastim (6 mg subcutaneous administration) was administered on day two of the chemotherapy cycle if the patient's hemoglobin levels were ≦11 g/dL. The aforementioned chemotherapy cycle was repeated every two weeks, for up to a total of six cycles.
# Patients admitted into the trial included those patients without previous treatment (excluding surgical treatment, administration of Picibanil into the serous membrane, irradiation of 30% or less hematopoietic bone, or oral chemotherapeutic agents within 3 months of entry in the trial).
# The Japan Phase III Clinical Trial was conducted as a double-blind study because peripheral neuropathy is diagnosed based on subjective symptoms evaluated through clinical interviews, lab tests, and the like. Accordingly, evaluations by both physicians and patients are highly important. […] A placebo was used as control since there is no established therapy or drug for preventing peripheral neuropathy. Because the severity of peripheral neuropathy is evaluated based on patient's reports (i.e., subjective symptoms), the Peripheral Neuropathy Questionnaire (PNQ©) was used in primary evaluation. CIPN-20 and NCI-CTC were used in secondary evaluation. The incidence and severity of adverse reactions, time to their onset, etc. and the like, were compared between patients treated with Tavocept™ and those given a placebo using the aforementioned methods.
# [7] = tested on: patients with advanced, Stage IIIB/IV, non-small cell lung carcinoma (NSCLC), including the adenocarcinoma sub-type; assay: U.S. Phase II NSCLC Clinical Trial; format: in vivo, human
# Method: as §3
# whole cells = assay: Whole cell mediated disulfide reduction; format: cell-based; details: mesna in combination with cisplatin
# [8] = Tavocept™ and chemotherapy vs chemotherapy and placebo
# [9] = Grade 3 and Grade 4 treatment-related adverse events, Tavocept™ arm versus non-Tavocept™ arm, FIG. 15
smiles,measurement,setting,value
NC(CSSCCS(=O)(=O)O)C(=O)O (centres unmarked) [BNP7766],substrate (alternative substrate inhibitor) for thioredoxin / the coupled thioredoxin/thioredoxin reductase/NADPH system,[1],substrates
same,"NADPH Oxidation, Thioredoxin Reductase + Thioredoxin",[1],14.4 ± 0.2 nmol/min/mL
NC(CCSSCCS(=O)(=O)O)C(=O)O (centres unmarked) [BNP7768],substrate (alternative substrate inhibitor) for thioredoxin / the coupled thioredoxin/thioredoxin reductase/NADPH system,[1],substrates
same,"NADPH Oxidation, Thioredoxin Reductase + Thioredoxin",[1],8.6 ± 0.06 nmol/min/mL
N[C@@H](CCC(=O)N[C@@H](CSSCCS(=O)(=O)O)C(=O)NCC(=O)O)C(=O)O [BNP7772],substrate (alternative substrate inhibitor) for thioredoxin / the coupled thioredoxin/thioredoxin reductase/NADPH system,[1],substrates
same,"NADPH Oxidation, Thioredoxin Reductase + Thioredoxin",[1],14.1 ± 0.1 nmol/min/mL
same,substrate for glutathione reductase,[2],alternative substrate inhibitor
NC(CCC(=O)NC(CSSCCS(=O)(=O)O)C(=O)O)C(=O)O (centres unmarked) [BNP7774],substrate (alternative substrate inhibitor) for thioredoxin / the coupled thioredoxin/thioredoxin reductase/NADPH system,[1],substrates
same,"NADPH Oxidation, Thioredoxin Reductase + Thioredoxin",[1],9.6 ± 0.2 nmol/min/mL
N[C@@H](CSSCCS(=O)(=O)O)C(=O)NCC(=O)O [BNP7776],substrate (alternative substrate inhibitor) for thioredoxin / the coupled thioredoxin/thioredoxin reductase/NADPH system,[1],substrates
same,"NADPH Oxidation, Thioredoxin Reductase + Thioredoxin",[1],15.8 ± 0.3 nmol/min/mL
"O=S(=O)([O-])CCSSCCS(=O)(=O)[O-].[Na+].[Na+] [Tavocept™, disodium 2,2′-dithio-bis-ethane sulfonate]",inhibition at 1100 µM,[3],5.6%
same,inhibition at 3300 µM,[3],39%
same,inhibition at 10000 µM,[3],66.4%
same,oxidation of reduced thioredoxin to oxidized thioredoxin,[1],drives the oxidation
same,substrate (alternative substrate inhibitor) for thioredoxin / the coupled thioredoxin/thioredoxin reductase/NADPH system,[1],substrate; also recorded: most likely a substrate for TX
same,"NADPH Oxidation, Thioredoxin Reductase + Thioredoxin",[1],13.1 ± 0.2 nmol/min/mL
same,NADPH oxidation by TXR in the presence of TX,[1]; FIG. 17,concentration-dependent increase
same,Km,[1]; read-out: Km as substrate for the coupled thioredoxin/thioredoxin reductase system,72 µM
same,inhibition of TX/TXR catalyzed reduction of the insulin A-B chain disulfide bond,[4],inhibits
same,Km,[4]; read-out: Km for inhibition of thioredoxin/thioredoxin reductase catalyzed reduction of the insulin A-B chain disulfide,3600 µM
same,substrate for glutathione reductase,[2],not a substrate
same,substrate-like / alternative substrate inhibitor activity with glutaredoxin (coupled GRX/GSH/GR system),[5],substrate-like activity
same,chemotherapy-induced kidney damage,[6]; [8],medically-important reductions
same,chemotherapy-induced vomiting/emesis,[6]; [8],medically-important reductions
same,patients with Grade 3 (severe) decrease in red blood cell,"[6]; Tavocept™ arm, FIG. 7",1 patients
same,"Response Rate, as measured by physicians","[6]; Tavocept™ arm, FIG. 8 ""Doctor""",41.9%
same,reduction in severe (Grade D or E) peripheral neuropathy (PNQ),"[6]; paclitaxel/Tavocept™/cisplatin vs paclitaxel/saline placebo/cisplatin, FIG. 5, GEE P-Value 0.1565 (FIG. 6)",~50%
same,anorexia,"[6]; vs placebo regimen, p=0.0029",reductions
same,fatigue,"[6]; vs placebo regimen, p=0.0163",reductions
same,nausea/vomiting,"[6]; vs placebo regimen, p=0.0240",reductions
same,diarrhea,"[6]; vs placebo regimen, p=0.0859",reductions
same,insomnia,"[6]; vs placebo regimen, p=0.1108",reductions
same,constipation,"[6]; vs placebo regimen, p=0.1114",reductions
same,"hazard ratio, adenocarcinoma",[7]; FIG. 14,0.601
same,reduction in dehydration,[7]; [9],50%
same,reduction in hypomagnesaemia,[7]; [9],100%
same,reduction in nausea,[7]; [9],38.5%
same,reduction in vomiting,[7]; [9],71.5%
same,hazard ratio,"[7]; NSCLC, FIG. 12",0.750
same,"increase in patient survival, adenocarcinoma","[7]; Tavocept™ arm versus non-Tavocept™ arm, FIG. 14",6.54 month
same,"increase in patient survival, adenocarcinoma","[7]; Tavocept™ arm versus non-Tavocept™ arm, FIG. 14, listed as Tavocept",~6.5 month
"O=S(=O)([O-])CCS.[Na+] [mesna, 2-mercapto ethane sulfonate sodium]",reduction of hydroxyethyldisulfide (GRX substrate) by whole cells,whole cells,enhanced
same,reduction of α-lipoic acid (TX/TXR substrate) by whole cells,whole cells,enhanced
